In patent US20170059568A1, “Identification of JC viral epitopes by cytotoxic T lymphocytes in healthy individuals and their use in assays” (JANSSEN PHARMACEUTICA NV, priority 2014, published 2017):

Tests used:
Assay type in all cases: cell-based, human
CD8+-enriched PBMC [1] = test: Direct ex vivo IFN-gamma ELISPOT screening of 98 predicted JCPyV MHC class I peptides in 92 healthy subjects; details: for Positive Donors (p < 0.1): number of responding donors among about 10 donors of the predicted HLA allotype, 5*10^5 CD8+-enriched PBMC per well; for Positive Donors (p < 0.1) / tested donors/subjects with significant T cell response to the peptide: peptide 10 μM; for tested donors/subjects with significant T cell response to the peptide: initial screening, allotype-specific subjects; for JCPyV-seronegative subjects reacting against the peptide, out of 22: 22 JCPyV VP1 antibody-seronegative subjects with CTL response; for JCPyV-seronegative subjects reacting against the peptide: 22 JCPyV VP1 antibody-seronegative subjects with CTL response (adj p<0.1); for all subjects tested showing a positive response: independent of HLA-type
Procedure: The 9-mer and 10-mer JCPy virus test peptides were synthesized and HPLC purified to >90% (Thermo Fisher Scientific, GmbH). Peptides were solubilized in DMSO and used in ELISPOT (Mabtech, Sweden) at 10 μM.
(§1) To enrich for the CD8+ T cell population, CD4+ cells were depleted from the PBMC using magnetic cell separation, according to the manufacturer's instructions (StemCell Technologies, Vancouver, Canada).
(§2) PBMC from selected subjects were thawed, washed and seeded onto anti-IFN-γ coated 96-well plates (Mabtech, Sweden) at 2.5*10^5 or 5*10^5 cells per well. Test antigens were diluted in the assay media and added to the cells at the specified doses. Assay medium containing DMSO, and assay medium alone were included as blank conditions for all donors. Cells were incubated for 16-18 hours in a humidified atmosphere at 37° C., 5% CO2. After the incubation period the cells were washed from the plates and an in-house spot development procedure was used to determine IFN-γ production (Lonza, Cambridge, UK). Upon completion of spot development, the plates were scanned, counted and QC analysis conducted using the ImmunoSpot Analyzer (Cellular Technologies Ltd, Cleveland, US).
(§3) The spot count per well (i.e. the number of IFN-γ secreting cells per well) in response to each test antigen was analyzed. Mean values were calculated from the triplicate wells for each test condition. Data analysis was then carried out using the distribution free resampling method (DFR). The DFR method compares each test condition against the blank for each donor and calculates whether the difference is statistically significant (p<0.1).
(§4) The ELISPOT with CD8+-enriched PBMC (5*10^5 cells per well) with the standard ELISPOT assay medium without overnight resting period was used in further experiments.
All viral protein (VP1, VP2, agnoprotein, common T, large T Antigen (LTAg), and small t Antigen (stAg) from both JCPyV and BKPyV) sequences were scanned for the presence of putative HLA class I restricted epitopes. Profiling is performed at the allotype level for 16A and 12B, i.e. 28 HLA class I receptors in total. […] Therefore, during the further selection of epitopes with high expected immunogenicity potential, the following aspects were considered: high HLA-A and -B impact of epitopes, high promiscuity of epitopes, specificity to JCPyV proteins, potential preference for 9-mer peptides, minimal similarity of epitopes to human proteome sequences, location of epitopes in the JCPyV protein sequences Based on the in silico predictions, 98 peptides of the JCPyV proteins were finally selected, representing potential T cell epitopes for the major HLA class I allotypes in the global population. To test immunogenicity of these 98 peptides the ten most common HLA allotypes were selected, 5 HLA-A and 5 HLA-B allotypes (A*0101, A*0201, A*0301, A*1101, A*2402, B*0702, B*0801, B*1501, B*3501 and B*4001) and for each HLA allotype we aimed to have approximately 10 peptides that gave the strongest signal in Epibase. Alongside, the positive controls (CEF, VP1 peptide pool, and VP1 p100) and negative controls (medium blank and DMSO) were tested. The control peptide pools gave responses in the expected range, in 87% and 60% of all subjects tested, showing a positive response to the CEF and JCPyV VP1 peptide pools, respectively. […] The results for the other proteins can be found in supplementary Table 1 and 2.

CD8+-enriched PBMC [2] = test: Direct ex vivo IFN-gamma ELISPOT optimization (cell amount, CD8+ enrichment, medium, overnight rest)
Procedure: as §2
The spot count per well (i.e. the number of IFN-γ secreting cells per well) in response to each test antigen was analyzed. Mean values were calculated from the triplicate wells for each test condition. […]
It has been reported that for some viral peptides, the use of serum-free assay medium and overnight resting of the PBMC before stimulation with peptide can increase peptide specific T cell responses. The influence of assay medium and overnight resting of PBMC was evaluated using only CD8+-enriched PBMC from 5 HLA-A*02 subjects and one non-HLA-A*02 subject.

CD8+-enriched PBMC [3] = test: Direct ex vivo IFN-gamma ELISPOT validation of the top 10 peptides and their pool in 20 donors; details: for donors responding (T cell response): 20 selected donors covering 8 HLA allotypes
Procedure: The peptide pool of top 10 peptides originating from the initial screening (JCPyV pool) was solubilized in DMSO at 12.5 mg/ml per peptide with a final working concentration of the pool around 10 μM.
as §1, §2, §3, §4
To verify whether the newly identified epitopes were really immunodominant, the 10 newly identified peptides were tested individually or as a peptide pool in the optimized CD8+ T cell enriched direct ex vivo ELISPOT assay. Twenty subjects were selected which cover 8 of the 10 HLA allotypes that were initially selected. […]

## LTCGNILMW (JC polyomavirus) [AP00367]
CD8+-enriched PBMC [1]
  Positive Donors (p < 0.1): 4

## YPISFLLTDL (JC polyomavirus) [AP00377]
CD8+-enriched PBMC [1]
  Positive Donors (p < 0.1): 5

## MAGVAWIHCL (JC polyomavirus) [AP00423]
CD8+-enriched PBMC [1]
  tested donors/subjects with significant T cell response to the peptide: 90%
  Positive Donors (p < 0.1): 9

## ILMWEAVTL [AP00410]
CD8+-enriched PBMC [2]; FIG. 1 condition C: CD8+-enriched PBMC 5*10^5 per well, 3 HLA-A*02 and one non-HLA-A*02 subject
  subjects with significant IFN-γ response (DFR method): two subjects responded
CD8+-enriched PBMC [2]; FIG. 2 condition D: CD8+-enriched PBMC, serum containing medium, no overnight rest, 5 HLA-A*02 and one non-HLA-A*02 subject
  donors with significant IFN-γ response: three of them also responded
CD8+-enriched PBMC [1]
  JCPyV-seronegative subjects reacting against the peptide, out of 22: almost all responded
  JCPyV-seronegative subjects reacting against the peptide: 82%
  Positive Donors (p < 0.1): 7
CD8+-enriched PBMC [1]; all 92 subjects
  subjects showing a positive response out of 92 tested: 44
  all subjects tested showing a positive response: 37%
CD8+-enriched PBMC [1]; all 92 subjects, listed as JCPyV VP1 p100 9-mer
  all subjects tested showing a positive response: 48%
CD8+-enriched PBMC [1]; donors with A*0201 and A*2402 allotypes
  significant responses in A*0201 and A*2402 allotypes: 58%

## STISQAFWNL (JC polyomavirus) [AP00400]
CD8+-enriched PBMC [1]
  Positive Donors (p < 0.1): 6

## ILMWEAVTLK [AP00388, JCPyV VP1 p100 10-mer]
CD8+-enriched PBMC [1]; A*2402 donors
  potency at inducing CD8+ T cell responses, 10-mer compared with 9-mer: far less potent than the 9-mer

## FESDSPNRDM (JC polyomavirus) [AP00457]
CD8+-enriched PBMC [1]
  Positive Donors (p < 0.1): 6
CD8+-enriched PBMC [3]
  donors responding (T cell response): 90%

## FLRSSPLVWI (JC polyomavirus) [AP00386]
CD8+-enriched PBMC [1]
  tested donors/subjects with significant T cell response to the peptide: 80%
  Positive Donors (p < 0.1): 8
CD8+-enriched PBMC [3]; 20 donors, peptides tested separately and as pool
  donors with significant T cell response out of 20 tested: 20
CD8+-enriched PBMC [3]
  donors responding (T cell response): 100%

## GEAAATIEV (JC polyomavirus) [AP00460]
CD8+-enriched PBMC [1]
  Positive Donors (p < 0.1): 3

## RILIFLLEFL (JC polyomavirus) [AP00402]
CD8+-enriched PBMC [1]
  JCPyV-seronegative subjects reacting against the peptide, out of 22: 8
  JCPyV-seronegative subjects reacting against the peptide: 36%
  Positive Donors (p < 0.1): 6

## SAIAQLGYRF (JC polyomavirus) [AP00441]
CD8+-enriched PBMC [1]
  Positive Donors (p < 0.1): 5
